Experimental data reported in ChEMBL document CHEMBL1201862, “PubChem BioAssay data set” (2004).
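Dose response: 5 concentrations. Exposure: 48 h. Format: 96-well plates. Endpoint: linear interpolation; highest concentration if not reached. At the GI50, growth is halved.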 Activity calls are given as the source filed them. Rule as the data show it: active = GI50 up to about 1.1 µM and inactive = higher.

How the values were obtained:
Test in all cases: NCI-60 cell line screen, 48 h
CAKI-1 = system: CAKI-1
HCT-15 = system: HCT-15
SF-295 = system: SF-295
Malme-3M = system: Malme-3M
HL-60 = system: HL-60
A498 = system: A498
SK-MEL-2 = system: SK-MEL-2
MCF7 = system: MCF7
786-0 = system: 786-0
A549 = system: A549
LOX IMVI = system: LOX IMVI
HCC 2998 = system: HCC 2998
OVCAR-8 = system: OVCAR-8
SW-620 = system: SW-620
NCI-H226 = system: NCI-H226
HT-29 = system: HT-29
OVCAR-4 = system: OVCAR-4
HCT-116 = system: HCT-116
BT-549 = system: BT-549
M14 = system: M14

CC(=O)OCCOCCN1CCN(C2=C(Cl)C(=O)c3c(O)ccc(O)c3C2=O)CC1
GI50 (CAKI-1): 0.339 µM (active)
GI50 (HCT-15): 0.365 µM
GI50 (SF-295): 1.93 µM (inactive)
GI50 (Malme-3M): 0.318 µM (active)
GI50 (HL-60): 0.0394 µM (active)
GI50 (A498): 1.86 µM (inactive)
GI50 (SK-MEL-2): 1.63 µM (inactive)
GI50 (MCF7): 0.302 µM (active)
GI50 (786-0): 0.326 µM (active)
GI50 (A549): 2.1 µM (inactive)
GI50 (LOX IMVI): 0.423 µM (active)
GI50 (HCC 2998): 2.37 µM (inactive)
GI50 (OVCAR-8): 0.685 µM (active)
GI50 (SW-620): 0.179 µM (active)
GI50 (NCI-H226): 2.89 µM (inactive)
GI50 (HT-29): 0.796 µM (active)
GI50 (OVCAR-4): 0.627 µM (active)
GI50 (HCT-116): 0.305 µM (active)
GI50 (BT-549): 0.776 µM (active)
GI50 (M14): 0.458 µM (active)

CC1=CC(=O)c2ccccc2C1=O [MENADIONE]
GI50 (CAKI-1): 16.1 µM (inactive)
GI50 (HCT-15): 3.42 µM
GI50 (SF-295): 16.5 µM (inactive)
GI50 (Malme-3M): 4.76 µM (inactive)
GI50 (HL-60): 2 µM (inactive)
GI50 (A498): 22.6 µM (inactive)
GI50 (SK-MEL-2): 8.3 µM (inactive)
GI50 (MCF7): 8.34 µM (inactive)
GI50 (786-0): 14.6 µM (inactive)
GI50 (A549): 18.5 µM (inactive)
GI50 (LOX IMVI): 2.04 µM (inactive)
GI50 (HCC 2998): 17 µM (inactive)
GI50 (OVCAR-8): 10.1 µM (inactive)
GI50 (SW-620): 2.14 µM (inactive)
GI50 (NCI-H226): 14.3 µM (inactive)
GI50 (HT-29): 17.9 µM (inactive)
GI50 (OVCAR-4): 3.87 µM (inactive)
GI50 (HCT-116): 2 µM (inactive)
GI50 (BT-549): 12.3 µM (inactive)
GI50 (M14): 5.66 µM (inactive)

COc1cc(C)c2c(c1C=O)Oc1c(c(C)c(O)c3c1C(O)OC3=O)OC2=O (stereo not given) [STICTIC ACID]
GI50 (CAKI-1): > 100 µM (inactive)
GI50 (HCT-15): 17.6 µM
GI50 (SF-295): 49.2 µM (inactive)
GI50 (Malme-3M): 20.7 µM (inactive)
GI50 (HL-60): 23.3 µM (inactive)
GI50 (A498): 31.2 µM (inactive)
GI50 (SK-MEL-2): > 10 µM (inactive)
GI50 (MCF7): 22.4 µM (inactive)
GI50 (786-0): 73.3 µM (inactive)
GI50 (A549): > 100 µM (inactive)
GI50 (LOX IMVI): 28.4 µM (inactive)
GI50 (HCC 2998): 20.2 µM (inactive)
GI50 (OVCAR-8): 31.4 µM (inactive)
GI50 (SW-620): 57.9 µM (inactive)
GI50 (NCI-H226): 37.6 µM (inactive)
GI50 (HT-29): 41.8 µM (inactive)
GI50 (OVCAR-4): 25.5 µM (inactive)
GI50 (HCT-116): 36.8 µM (inactive)
GI50 (BT-549): 35.2 µM (inactive)
GI50 (M14): 37.4 µM (inactive)
